From patent publication US20250188061A1, “NOVEL DEUTERATED PYRIMIDIN-2-YL SULFONAMIDE DERIVATIVES” (Hoffmann-La Roche Inc., priority 2022, published 2025)

Molecular target: human GPR17 short isoform (Homo sapiens, UniProt Q13304)
Test: GPR17 cAMP assay (hGPR17 cAMP, antagonist mode)
Assay type: cell-based
Settings: CHO-K1 cells stably expressing human GPR17 short isoform; EC80 of agonist MDL29,951; forskolin 15 μM; TR-FRET cAMP
Source text: Changes in intracellular cyclic adenosine monophosphate (cAMP) levels were quantified using the Nano-TRF Detection Assay kit (Roche Diagnostics, Cat. No. 05214386001). This assay allows for direct cAMP quantification in a homogeneous solution. cAMP is detected based on time-resolved fluorescence energy transfer (TR-FRET) and competitive binding of ruthenylated cAMP and endogenous cAMP to an anti-cAMP monoclonal antibody labeled with AlexaFluor-700. The Ruthenium complex serves as the FRET donor and transfers energy to AlexaFluor-700. The FRET signal is inversely proportional to the cAMP concentration.
CHO-GPR17S cells were detached with Accutase and resuspended in assay buffer consisting of Hank's Balanced Salt Solution (HBSS), 10 mM HEPES (4-(2-hydroxyethyl) piperazine-1-ethanesulfonic acid solution) and 0.1% bovine serum albumin (pH 7.4). The cells were seeded in black 384-well plates (Corning) at a density of 10,000 cells/20 μl assay buffer until the addition of compounds.
Test antagonist compounds were serially diluted in dimethyl sulfoxide (DMSO) and spotted in 384-well plates. The compounds were then diluted in HBSS buffer supplemented with an EC80 concentration of MDL29,951 (3-(2-Carboxy-4,6-dichloroindol-3-yl) propionic acid) (GPR17 agonist) plus 3-Isobutyl-1-methylxanthine (IBMX) (0.5 mM final concentration) and added to the cells at room temperature. Forskolin (15 μM final concentration) was added 5 minutes after the test compounds and the cells were incubated at room temperature for 30 minutes. The assay was stopped by adding cAMP detection mix (containing detergents for cell lysis) for 90 minutes at room temperature.
Cellular cAMP was measured using a Paradigm reader (Molecular Devices). The raw data was used to calculate the FRET signal based on the assay's P-factor as per cAMP kit instructions. The data was normalized to the maximal activity of a reference antagonist and dose response curves were fitted to the percent activity of the test compounds using a sigmoidal dose response model (Genedata Screener).

Sequence of human GPR17 short isoform (Q13304 29-367): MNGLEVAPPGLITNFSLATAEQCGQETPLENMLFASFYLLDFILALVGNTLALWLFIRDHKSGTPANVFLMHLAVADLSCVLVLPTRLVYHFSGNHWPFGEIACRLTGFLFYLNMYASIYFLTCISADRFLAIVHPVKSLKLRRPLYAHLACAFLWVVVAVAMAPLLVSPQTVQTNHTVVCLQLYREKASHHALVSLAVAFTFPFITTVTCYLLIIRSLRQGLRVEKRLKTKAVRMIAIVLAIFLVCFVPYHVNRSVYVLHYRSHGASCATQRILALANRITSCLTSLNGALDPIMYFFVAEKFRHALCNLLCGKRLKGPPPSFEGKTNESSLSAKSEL

Compound | IC50
[2H]C([2H])(c1cnc(NS(=O)(=O)c2c[nH]c3cc(Cl)ccc23)nc1OC)C(F)F [Example 7, 6-chloro-N-[5-(1,1-dideuterio-2,2-difluoro-ethyl)-4-methoxy-pyrimidin-2-yl]-1H-indole-sulfonamide] | 55 nM
[2H]C([2H])(c1cnc(NS(=O)(=O)c2c[nH]c3c(F)c(Cl)ccc23)nc1OC)C(F)F [Example 5, 6-chloro-N-[5-(1,1-dideuterio-2,2-difluoro-ethyl)-4-methoxy-pyrimidin-2-yl]-7-fluoro-1H-indole-3-sulfonamide] | 107 nM
[2H]C([2H])(F)C([2H])([2H])Oc1c(OC)nc(NS(=O)(=O)c2c[nH]c3nc(Br)ccc23)nc1OC [Example 2, 6-bromo-N-[4,6-dimethoxy-5-(1,1,2,2-tetradeuterio-2-fluoro-ethoxy)pyrimidin-2-yl]-1H-pyrrolo [2,3-b]pyridine-3-sulfonamide] | 42 nM
[2H]C([2H])(c1c(OC)nc(NS(=O)(=O)c2c[nH]c3nc(Cl)ccc23)nc1OC)C(F)F [Example 11, 6-chloro-N-[5-(1,1-dideuterio-2,2-difluoro-ethyl)-4,6-dimethoxy-pyrimidin-2-yl]-1H-pyrrolo[2,3-b]pyridine-3-sulfanomide] | 37 nM
[2H]C([2H])(c1cnc(NS(=O)(=O)c2c[nH]c3cc(F)ccc23)nc1OC)C(F)F [Example 4, N-[5-(1,1-dideuterio-2,2-difluoro-ethyl)-4-methoxy-pyrimidin-2-yl]-6-fluoro-1H-indole-3-sulfonamide] | 94 nM
[2H]C([2H])(c1cnc(NS(=O)(=O)c2c[nH]c3c(F)c(Br)ccc23)nc1OC)C(F)F [Example 8, 6-bromo-N-[5-(1,1-dideuterio-2,2-difluoro-ethyl)-4-methoxy-pyrimidin-2-yl]-7-fluoro-1H-indole-3-sulfonamide] | 137 nM
[2H]C([2H])(Oc1c(OC)nc(NS(=O)(=O)c2c[nH]c3nc(Br)ccc23)nc1OC)C(F)F [Example 10, 6-bromo-N-[5-(1,1-dideuterio-2,2-difluoro-ethoxy)-4,6-dimethoxy-pyrimidin-2-yl]-1H-pyrrolo[2,3-b]pyridine-3-sulfonamide] | 81 nM
[2H]C([2H])(CF)Oc1cnc(NS(=O)(=O)c2c[nH]c3c(F)c(Cl)ccc23)nc1OC [Example 6, 6-chloro-N-[5-(1,1-dideuterio-2-fluoro-ethoxy)-4-methoxy-pyrimidin-2-yl]-7-fluoro-1H-indole-3-sulfonamide] | 105 nM
[2H]C([2H])(c1c(OC)nc(NS(=O)(=O)c2c[nH]c3nc(Br)ccc23)nc1OC)C(F)F [Example 9, 6-bromo-N-[5-(1,1-dideuterio-2,2-difluoro-ethyl)-4,6-dimethoxy-pyrimidin-2-yl]-1H-pyrrolo[2,3-b]pyridine-3-sulfonamide] | 23 nM
[2H]C([2H])(F)C([2H])([2H])Oc1c(OC)nc(NS(=O)(=O)c2c[nH]c3nc(Cl)ccc23)nc1OC [Example 3, 6-chloro-N-[4,6-dimethoxy-5-(1,1,2,2-tetradeuterio-2-fluoro-ethoxy)pyrimidin-2-yl]-1H-pyrrolo[2,3-b]pyridine-3-sulfonamide] | 63 nM
[2H]C([2H])(F)C([2H])([2H])Oc1cnc(NS(=O)(=O)c2c[nH]c3c(F)c(Cl)ccc23)nc1OC [Example 1, 6-chloro-7-fluoro-N-[4-methoxy-5-(1,1,2,2-tetradeuterio-2-fluoro-ethoxy)pyrimidin-2-yl]-1H-indole-3-sulfonamide] | 85 nM
[2H]C([2H])(c1c(OC)nc(NS(=O)(=O)c2c[nH]c3nc(C)ccc23)nc1OC)C(F)F [Example 12, N-[5-(1,1-dideuterio-2,2-difluoro-ethyl)-4,6-dimethoxy-pyrimidin-2-yl]-6-methyl-1H-pyrrolo [2,3-b]pyridine-3-sulfonamide] | 57 nM
